How the values were obtained:
Leishmania donovani [1] = assay: (§1) GSK_TCAKS: pIC50 Leishmania donovani Imaging: Infected Macrophages. Assay plates (384-well) were prepared by adding 250nL of compound to each well. For single shot assay, the final compound concentration was 5 uM. […] Automated image analysis was performed with a script developed on Acapella High Content Imaging and Analysis Software (PerkinElmer). Output: Percent of infected macrophage cells were reported for each well.; type: functional, organism-based, Homo sapiens; conditions: THP-1
[2] = target: Sterol 14-alpha demethylase (Trypanosoma cruzi (strain CL Brener), UniProt Q7Z1V1); assay: GSK_TCAKS: pIC50 CYP51 from Trypanosoma cruzi.; type: functional
Leishmania donovani [3] = assay: GSK_TCAKS: pIC50 Leishmania donovani viability assay using fluorescence intensity. Assay plates (1536-well) were prepared by adding 30nL per well of compound. For single shot assay, the final compound concentration was 5uM. […] Briefly, eGFP LdBOB axenic amastigotes were harvested, fixed and counted in a CASY cell counter (Roche-Applied Science). A final concentration of 1.5 * 10^5 cells per well were prepared in amastigote media containing 500 U/mL penicillin/streptomycin (Invitrogen) and 6uL was dispensed to each experimental well using a Multidrop Combi dispenser (Thermo Scientific). 6uL of assay media was dispensed to control columns used as reference for 100% compound response. Following incubation for 72 h at 37C, 5% CO2, 2 uL of resazurin was added to each well at a final concentration of 0.5 mM in phosphate buffered saline (PBS) with IGEPAL (Sigma-Aldrich), 0.05% (v/v).; type: functional, organism-based
[4] = GSK_TCAKS: pIC50 HepG2 human cell line viability assay using luminiscence. […] Seeding density was checked to ensure that new mono-layers were not more than 50% confluent at the time of harvesting. Cell suspension was added to 500 mL of the same medium at a final density of 1.2 * 10^5 cells/mL. This cell suspension was dispensed (25 uL, 3000 cells per well) into 384-well clear-bottom plates using a Multidrop Combi dispenser. Prior to addition of the cell suspension, the screening compounds (250 nL) were pre-dispensed into the plates with an Echo liquid handler. Plates were incubated for 48 h at 37C, 5% CO2. After incubation, plates equilibrated at room temperature for 30 min before proceeding to develop the luminescent signal. The signal developer, CellTiter-Glo Reagent, was allowed to equilibrate at room temperature for 30 min and added to the plates (25uL per well) using a Multidrop Combi dispenser. Plates were left for 10 min at room temperature for stabilization and then read using a ViewLux.; type: toxicity, cell-based
Trypanosoma cruzi [5] = assay: GSK_TCAKS: pIC50 Trypanosoma cruzi viability assay using beta-GAL activity. This assay was run at single shot at 5uM compound concentration per well. The biological reagents consisted of NIH-3T3 host cells and trypomastigotes parasitic cells; both cell types were set to a 3.3 * 10^5 cells/mL dilution in assay DMEM by means of a CASY cell counter device using a 60um capillary. 6 uL of the mixture were dispensed per well (about 1 * 10^3 host-cells and 1 * 10^3 parasites) with a Multidrop Combi dispenser. […] In all wells, the percentage of DMSO never exceeded 0.5%. Plates incubated for four days at 37C, 5% CO2. The substrate used for the assay fluorescence intensity (FLINT) readout was resorufin-beta-D-galactopiranoside (Sigma-Aldrich) at 5uM per well. It was diluted in PBS supplemented with the soft detergent Igepal (Fluka).; type: functional, organism-based, Mus musculus; conditions: Tulahuen, NIH3T3
Trypanosoma cruzi [6] = assay: (§2) GSK_TCAKS: pIC50 Trypanosoma cruzi Imaging: Infected Cells. […] Cells were then washed once with PBS before infection. T. cruzi trypomastigotes, collected at days 5 to 8 after infection from LLC-MK2 parasite infected cultures, were allowed to swim out for 4h at 37C from a centrifuged pellet (2,500 rpm/10 min/room temperature). Trypomastigotes were then collected and counted in a CASY Cell Counter. Trypomastigotes, in supplemented DMEM, were added to H9c2 cultures in a multiplicity of infection of 1 and incubated for 18 h. Cells were washed once with PBS before incubation of the infected H9c2 monolayer with trypsin (Life-Technologies) to detach cells from the flask. Cells were counted in a CASY Cell Counter using a 150 um capillary and their density set at 5 * 10^4 cells per mL in supplemented assay DMEM. Infected H9c2 were dispensed into 384-well poly-lysine coated assay plates at 50uL per well using a Multidrop Combi dispenser. After seeding them, the plates were incubated at 37C, 5% CO2 for 72h. Cultures were then fixed and stained by addition of 50 uL of a solution containing 8% formaldehyde and 4 uM DRAQ5 DNA dye (BioStatus, UK) per well. […] Five images were collected per well for reliable statistical analysis. Automated image analysis was performed with a script developed on Acapella High Content Imaging and Analysis Software (PerkinElmer). Output: percentage of infected cells per well as a second infection marker.; type: functional, organism-based, Rattus norvegicus; conditions: H9c2, 4 h
Trypanosoma cruzi [7] = assay: as §2, with “H2C9” for “Trypanosoma cruzi”, “H9c2 Host Cardiomyocytes.” for “Infected Cells.”, “Number” for “percentage”, “H9c2 Host Cardiomyocytes nuclei to determine drug-related cytotoxicity.” for “infected cells per well as a second infection marker.”; type: functional, organism-based, Rattus norvegicus; conditions: H9c2, 4 h
[8] = system: Trypanosoma brucei brucei; assay: GSK_TCAKS: pIC50 Trypanosoma brucei viability assay using fluorescence intensity. Assay plates (1536-well) were prepared by dispensing 25nL of compound solution per well using an Echo acoustic dispenser (Labcyte).; type: functional, organism-based; conditions: Lister 427, 2 h
Leishmania donovani [9] = assay: as §1, with “THP-1 Host” for “Infected”, “THP-1 cell count” for “Percent of infected macrophage cells”; type: functional, organism-based, Homo sapiens
Trypanosoma cruzi [10] = assay: GSK_TCAKS: pIC50 Trypanosoma cruzi Imaging: Amastigotes/Cell. […] Cells were then washed once with PBS before infection. T. cruzi trypomastigotes, collected at days 5 to 8 after infection from LLC-MK2 parasite infected cultures, were allowed to swim out for 4h at 37C from a centrifuged pellet (2,500 rpm/10 min/room temperature). Trypomastigotes were then collected and counted in a CASY Cell Counter. Trypomastigotes, in supplemented DMEM, were added to H9c2 cultures in a multiplicity of infection of 1 and incubated for 18 h. Cells were washed once with PBS before incubation of the infected H9c2 monolayer with trypsin (Life-Technologies) to detach cells from the flask. Cells were counted in a CASY Cell Counter using a 150 um capillary and their density set at 5 * 10^4 cells per mL in supplemented assay DMEM. Infected H9c2 were dispensed into 384-well poly-lysine coated assay plates at 50uL per well using a Multidrop Combi dispenser. After seeding them, the plates were incubated at 37C, 5% CO2 for 72h. Cultures were then fixed and stained by addition of 50 uL of a solution containing 8% formaldehyde and 4 uM DRAQ5 DNA dye (BioStatus, UK) per well. […] Five images were collected per well for reliable statistical analysis. Automated image analysis was performed with a script developed on Acapella High Content Imaging and Analysis Software (PerkinElmer). Output: number of amastigotes per cell as infection level measurement.; type: functional, organism-based, Rattus norvegicus; conditions: H9c2, 4 h
[11] = system: Trypanosoma brucei brucei; assay: GSK_TCAKS: pIC50 Trypanosoma brucei viability assay using luminiscence. Assay plates (1536-well) were prepared. T. brucei cultures were harvested and counted in a CASY cell counter. A parasite suspension was prepared at a final concentration of 5 * 10^4 cells/mL in complete HMI9 medium and 6uL was dispensed to all wells containing compounds using a Multidrop Combi dispenser. 6uL of HMI9 media with 0.4% DMSO were dispensed to control columns. Plates were incubated for 24 h at 37C, 5% CO2 then tempered for 10 min at room temperature. ATP content was quantified by adding 4 uL of CellTiter-Glo Reagent (Promega) according to the manufacturer's instructions. Luminescence was measured using a ViewLux.; type: functional, organism-based; conditions: Lister 427, CASY
Leishmania donovani [12] = assay: as §1, with “Amastigotes/Macrophages.” for “Infected Macrophages.”, “Average number” for “Percent”, “amastigotes per” for “infected”, “cell” for “cells”; type: functional, organism-based, Homo sapiens; conditions: THP-1

Sterol 14-alpha demethylase, sequence (Q7Z1V1 whole entry): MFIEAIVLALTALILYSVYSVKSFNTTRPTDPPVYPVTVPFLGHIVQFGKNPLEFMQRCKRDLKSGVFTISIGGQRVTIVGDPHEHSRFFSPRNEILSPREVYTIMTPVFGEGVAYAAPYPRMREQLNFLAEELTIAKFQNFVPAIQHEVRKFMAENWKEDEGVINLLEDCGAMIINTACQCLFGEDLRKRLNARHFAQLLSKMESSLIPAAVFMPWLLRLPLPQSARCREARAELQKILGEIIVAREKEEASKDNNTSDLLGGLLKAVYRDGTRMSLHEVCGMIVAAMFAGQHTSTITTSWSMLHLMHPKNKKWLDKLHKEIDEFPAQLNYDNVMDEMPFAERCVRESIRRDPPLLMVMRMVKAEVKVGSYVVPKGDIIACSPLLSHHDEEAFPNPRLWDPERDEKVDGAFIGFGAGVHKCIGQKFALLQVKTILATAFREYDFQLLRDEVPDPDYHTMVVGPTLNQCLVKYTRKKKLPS

SMILES | IC50 (Leishmania donovani [1]) | IC50 [2] | IC50 (Leishmania donovani [3]) | IC50 at 48 h [4] | IC50 (Trypanosoma cruzi [5]) | IC50 (Trypanosoma cruzi [6]) | IC50 (Trypanosoma cruzi [7]) | IC50 [8] | IC50 (Leishmania donovani [9]) | IC50 (Trypanosoma cruzi [10]) | IC50 [11] | IC50 (Leishmania donovani [12])
COCc1cc(Nc2ccccc2)nc(-c2ccccn2)n1 | 7.94 µM | > 100 µM | 7.94 µM | 100 µM | 5.01 µM | 25.1 µM | 3.98 µM | > 39.8 µM | > 50.1 µM | 12.6 µM | > 39.8 µM | 5.01 µM
CNC(=O)Oc1ccc(C(=O)NCc2ccccc2)cc1OC(=O)NC | > 50.1 µM | > 100 µM | > 50.1 µM | > 100 µM | 31.6 µM | 39.8 µM | > 50.1 µM | 0.126 µM | > 50.1 µM | 39.8 µM | 0.398 µM | > 50.1 µM
CC(C)(C)Nc1nc(Nc2ccc3c(c2)CS(=O)(=O)C3)nc2[nH]ccc12 | 6.31 µM | 25.1 µM | 7.94 µM | 31.6 µM | 1 µM | 31.6 µM | 1 µM | 0.794 µM | 20 µM | 20 µM | 5.01 µM | 5.01 µM
COc1ccc(CN2C(=O)C(O)(CC(=O)c3ccncc3)c3cc(Br)ccc32)cc1OC (stereo unspecified) | 25.1 µM | 0.501 µM | 39.8 µM | 39.8 µM | 2.51 µM | 25.1 µM | 2 µM | 0.631 µM | 39.8 µM | 12.6 µM | 0.631 µM | 20 µM
CNC(=O)C1Cc2ccccc2N1C(=O)Cc1ccc(F)cc1 (stereo unspecified) | > 50.1 µM | > 100 µM |  | > 100 µM | > 50.1 µM | > 50.1 µM | > 50.1 µM | 0.251 µM | > 50.1 µM | > 50.1 µM | 0.251 µM | > 50.1 µM
CC(C)CC(=O)Nc1cc(C2CC2)nn1-c1nc2c(c(=O)[nH]1)CCCC2 | 7.94 µM | > 100 µM |  | > 100 µM | 0.794 µM | 0.501 µM | 2.51 µM | 0.2 µM | 5.01 µM | 0.126 µM | 0.2 µM | 5.01 µM
Cc1ccc(NC(C)C(=O)Nc2ccc(C#N)cc2)cc1S(=O)(=O)N1CCCCC1 (stereo unspecified) | 10 µM | 15.8 µM | 0.794 µM | 79.4 µM | 10 µM | 7.94 µM | > 50.1 µM | 7.94 µM | 50.1 µM | 7.94 µM | 10 µM | 5.01 µM
O=C(Nc1ccc(C(F)(F)F)cc1)Nc1cccc([N+](=O)[O-])c1 | 2.51 µM | 6.31 µM | 7.94 µM | 10 µM | 1 µM | 1.26 µM | 5.01 µM | 2 µM | 6.31 µM | 0.794 µM | 2 µM | 2 µM
CC(C)(C)c1cc(NC2CC2)nc(-c2ccccn2)n1 | 2.51 µM | > 100 µM | 1.58 µM | > 100 µM | 1.26 µM | 1.58 µM | 0.316 µM | 7.94 µM | 25.1 µM | 1.26 µM | 2.51 µM | 1.58 µM
